According to ChEMBL document CHEMBL4311959, “Discovery of a potent p38α/MAPK14 kinase inhibitor: Synthesis, in vitro/in vivo biological evaluation, and docking studies” (Eur J Med Chem, 2019):

Tests used:
[1] = biological target: Voltage-gated inwardly rectifying potassium channel KCNH2 (Homo sapiens, UniProt Q12809); test: Inhibition of human ERG incubated for 4 hrs by competitive fluorescence tracer binding based assay
THP-1 = test: Inhibition of LPS-induced TNFalpha production in human THP1 cells incubated for 1 hr followed by LPS stimulation and measured after 4 hrs by TR-FRET method; format: functional, cell-based
[2] = biological target: Mitogen-activated protein kinase 14 (Homo sapiens, UniProt Q16539); test: Inhibition of recombinant Nanoluc-tagged p38alpha (unknown origin) expressed in HEK293 cells incubated for 2 to 3 mins by NanoBRET assay; format: cell-based
Homo sapiens [3] = species on record: Homo sapiens; test: Selectivity index, ratio of IC50 for human RAF1 to IC50 for human p38alpha
[4] = biological target: Glycogen synthase kinase-3 beta (Homo sapiens) (UniProt P49841); test: Inhibition of human GSK3B at 10 uM using YRRAAVPPSPSLSRHSSPHQ(pS)EDEEE as substrate by [gamma-33P]-ATP assay relative to control
Glycogen synthase kinase-3 beta (Homo sapiens), sequence (P49841 whole entry, looked up): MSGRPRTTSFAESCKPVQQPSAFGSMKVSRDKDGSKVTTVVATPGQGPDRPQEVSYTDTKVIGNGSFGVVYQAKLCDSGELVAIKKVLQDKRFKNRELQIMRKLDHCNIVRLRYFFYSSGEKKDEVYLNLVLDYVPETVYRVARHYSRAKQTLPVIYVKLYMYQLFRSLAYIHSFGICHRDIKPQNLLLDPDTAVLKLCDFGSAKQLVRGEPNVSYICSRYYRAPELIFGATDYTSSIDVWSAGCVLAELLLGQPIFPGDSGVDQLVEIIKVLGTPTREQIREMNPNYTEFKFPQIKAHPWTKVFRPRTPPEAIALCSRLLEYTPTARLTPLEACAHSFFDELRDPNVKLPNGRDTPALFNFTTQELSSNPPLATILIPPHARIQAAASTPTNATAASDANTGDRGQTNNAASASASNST

[5] = biological target: Mitogen-activated protein kinase 3 (Homo sapiens) (UniProt P27361); test: Inhibition of human ERK1 at 10 uM using MBP as substrate by [gamma-33P]-ATP assay relative to control
[6] = biological target: Tyrosine-protein kinase Fyn (Homo sapiens) (UniProt P06241); test: Inhibition of human FYN at 10 uM using poly[Glu:Tyr] (4:1) as substrate by [gamma-33P]-ATP assay relative to control
Tyrosine-protein kinase Fyn (Homo sapiens), sequence (P06241 2-537 limits assumed): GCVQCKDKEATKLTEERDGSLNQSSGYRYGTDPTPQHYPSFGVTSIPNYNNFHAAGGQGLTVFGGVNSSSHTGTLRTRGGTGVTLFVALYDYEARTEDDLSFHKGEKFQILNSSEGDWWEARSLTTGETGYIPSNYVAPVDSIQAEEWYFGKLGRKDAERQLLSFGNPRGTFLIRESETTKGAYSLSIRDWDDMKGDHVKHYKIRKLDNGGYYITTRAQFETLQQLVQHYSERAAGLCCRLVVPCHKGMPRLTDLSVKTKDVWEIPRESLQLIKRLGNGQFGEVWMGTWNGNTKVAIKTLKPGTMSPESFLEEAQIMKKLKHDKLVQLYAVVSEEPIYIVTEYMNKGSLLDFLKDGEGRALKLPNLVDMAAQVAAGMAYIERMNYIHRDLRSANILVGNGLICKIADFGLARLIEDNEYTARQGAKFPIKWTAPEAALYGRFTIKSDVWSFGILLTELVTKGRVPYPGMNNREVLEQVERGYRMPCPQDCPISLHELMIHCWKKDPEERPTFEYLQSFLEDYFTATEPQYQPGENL

[7] = biological target: Tyrosine-protein kinase BTK (Homo sapiens) (UniProt Q06187); test: Inhibition of human BTK at 10 uM using KVEKIGEGTYGVVYK as substrate by [gamma-33P]-ATP assay relative to control
[8] = biological target: Mitogen-activated protein kinase 8 (Homo sapiens) (UniProt P45983); test: Inhibition of human JNK1 at 10 uM using ATF2 as substrate by [gamma-33P]-ATP assay relative to control
[9] = biological target: Mitogen-activated protein kinase 1 (Homo sapiens) (UniProt P28482); test: Inhibition of human ERK2 at 10 uM using MBP as substrate by [gamma-33P]-ATP assay relative to control
[10] = biological target: Receptor-type tyrosine-protein kinase FLT3 (Homo sapiens) (UniProt P36888); test: Inhibition of human FLT3 at 10 uM using EAIYAAPFAKKK as substrate by [gamma-33P]-ATP assay relative to control
[11] = biological target: Tyrosine-protein kinase JAK1 (Homo sapiens) (UniProt P23458); test: Inhibition of human JAK1 at 10 uM using poly[Glu:Tyr] (4:1) as substrate by [gamma-33P]-ATP assay relative to control
[12] = biological target: Vascular endothelial growth factor receptor 2 (Homo sapiens) (UniProt P35968); test: Inhibition of human KDR at 10 uM using poly[Glu:Tyr] (4:1) as substrate by [gamma-33P]-ATP assay relative to control
[13] = biological target: Dual specificity mitogen-activated protein kinase kinase 1 (Homo sapiens) (UniProt Q02750); test: Inhibition of human MEK1 at 10 uM using ERK2 as substrate by [gamma-33P]-ATP assay relative to control
[14] = biological target: Mast/stem cell growth factor receptor Kit (Homo sapiens) (UniProt P10721); test: Inhibition of human c-KIT at 10 uM using poly[Glu:Tyr] (4:1) as substrate by [gamma-33P]-ATP assay relative to control
[15] = biological target: RAF proto-oncogene serine/threonine-protein kinase (Homo sapiens, UniProt P04049); test: Inhibition of human RAF1 at 10 uM using MEK1 (K97R) as substrate by [gamma-33P]-ATP assay relative to control
[16] = biological target: DNA-dependent protein kinase catalytic subunit (Homo sapiens) (UniProt P78527); test: Inhibition of human DNAPK at 10 uM using EPPLSQEAFADLWKK as substrate by […]-ATP assay relative to control
DNA-dependent protein kinase catalytic subunit (Homo sapiens), sequence (P78527 whole entry): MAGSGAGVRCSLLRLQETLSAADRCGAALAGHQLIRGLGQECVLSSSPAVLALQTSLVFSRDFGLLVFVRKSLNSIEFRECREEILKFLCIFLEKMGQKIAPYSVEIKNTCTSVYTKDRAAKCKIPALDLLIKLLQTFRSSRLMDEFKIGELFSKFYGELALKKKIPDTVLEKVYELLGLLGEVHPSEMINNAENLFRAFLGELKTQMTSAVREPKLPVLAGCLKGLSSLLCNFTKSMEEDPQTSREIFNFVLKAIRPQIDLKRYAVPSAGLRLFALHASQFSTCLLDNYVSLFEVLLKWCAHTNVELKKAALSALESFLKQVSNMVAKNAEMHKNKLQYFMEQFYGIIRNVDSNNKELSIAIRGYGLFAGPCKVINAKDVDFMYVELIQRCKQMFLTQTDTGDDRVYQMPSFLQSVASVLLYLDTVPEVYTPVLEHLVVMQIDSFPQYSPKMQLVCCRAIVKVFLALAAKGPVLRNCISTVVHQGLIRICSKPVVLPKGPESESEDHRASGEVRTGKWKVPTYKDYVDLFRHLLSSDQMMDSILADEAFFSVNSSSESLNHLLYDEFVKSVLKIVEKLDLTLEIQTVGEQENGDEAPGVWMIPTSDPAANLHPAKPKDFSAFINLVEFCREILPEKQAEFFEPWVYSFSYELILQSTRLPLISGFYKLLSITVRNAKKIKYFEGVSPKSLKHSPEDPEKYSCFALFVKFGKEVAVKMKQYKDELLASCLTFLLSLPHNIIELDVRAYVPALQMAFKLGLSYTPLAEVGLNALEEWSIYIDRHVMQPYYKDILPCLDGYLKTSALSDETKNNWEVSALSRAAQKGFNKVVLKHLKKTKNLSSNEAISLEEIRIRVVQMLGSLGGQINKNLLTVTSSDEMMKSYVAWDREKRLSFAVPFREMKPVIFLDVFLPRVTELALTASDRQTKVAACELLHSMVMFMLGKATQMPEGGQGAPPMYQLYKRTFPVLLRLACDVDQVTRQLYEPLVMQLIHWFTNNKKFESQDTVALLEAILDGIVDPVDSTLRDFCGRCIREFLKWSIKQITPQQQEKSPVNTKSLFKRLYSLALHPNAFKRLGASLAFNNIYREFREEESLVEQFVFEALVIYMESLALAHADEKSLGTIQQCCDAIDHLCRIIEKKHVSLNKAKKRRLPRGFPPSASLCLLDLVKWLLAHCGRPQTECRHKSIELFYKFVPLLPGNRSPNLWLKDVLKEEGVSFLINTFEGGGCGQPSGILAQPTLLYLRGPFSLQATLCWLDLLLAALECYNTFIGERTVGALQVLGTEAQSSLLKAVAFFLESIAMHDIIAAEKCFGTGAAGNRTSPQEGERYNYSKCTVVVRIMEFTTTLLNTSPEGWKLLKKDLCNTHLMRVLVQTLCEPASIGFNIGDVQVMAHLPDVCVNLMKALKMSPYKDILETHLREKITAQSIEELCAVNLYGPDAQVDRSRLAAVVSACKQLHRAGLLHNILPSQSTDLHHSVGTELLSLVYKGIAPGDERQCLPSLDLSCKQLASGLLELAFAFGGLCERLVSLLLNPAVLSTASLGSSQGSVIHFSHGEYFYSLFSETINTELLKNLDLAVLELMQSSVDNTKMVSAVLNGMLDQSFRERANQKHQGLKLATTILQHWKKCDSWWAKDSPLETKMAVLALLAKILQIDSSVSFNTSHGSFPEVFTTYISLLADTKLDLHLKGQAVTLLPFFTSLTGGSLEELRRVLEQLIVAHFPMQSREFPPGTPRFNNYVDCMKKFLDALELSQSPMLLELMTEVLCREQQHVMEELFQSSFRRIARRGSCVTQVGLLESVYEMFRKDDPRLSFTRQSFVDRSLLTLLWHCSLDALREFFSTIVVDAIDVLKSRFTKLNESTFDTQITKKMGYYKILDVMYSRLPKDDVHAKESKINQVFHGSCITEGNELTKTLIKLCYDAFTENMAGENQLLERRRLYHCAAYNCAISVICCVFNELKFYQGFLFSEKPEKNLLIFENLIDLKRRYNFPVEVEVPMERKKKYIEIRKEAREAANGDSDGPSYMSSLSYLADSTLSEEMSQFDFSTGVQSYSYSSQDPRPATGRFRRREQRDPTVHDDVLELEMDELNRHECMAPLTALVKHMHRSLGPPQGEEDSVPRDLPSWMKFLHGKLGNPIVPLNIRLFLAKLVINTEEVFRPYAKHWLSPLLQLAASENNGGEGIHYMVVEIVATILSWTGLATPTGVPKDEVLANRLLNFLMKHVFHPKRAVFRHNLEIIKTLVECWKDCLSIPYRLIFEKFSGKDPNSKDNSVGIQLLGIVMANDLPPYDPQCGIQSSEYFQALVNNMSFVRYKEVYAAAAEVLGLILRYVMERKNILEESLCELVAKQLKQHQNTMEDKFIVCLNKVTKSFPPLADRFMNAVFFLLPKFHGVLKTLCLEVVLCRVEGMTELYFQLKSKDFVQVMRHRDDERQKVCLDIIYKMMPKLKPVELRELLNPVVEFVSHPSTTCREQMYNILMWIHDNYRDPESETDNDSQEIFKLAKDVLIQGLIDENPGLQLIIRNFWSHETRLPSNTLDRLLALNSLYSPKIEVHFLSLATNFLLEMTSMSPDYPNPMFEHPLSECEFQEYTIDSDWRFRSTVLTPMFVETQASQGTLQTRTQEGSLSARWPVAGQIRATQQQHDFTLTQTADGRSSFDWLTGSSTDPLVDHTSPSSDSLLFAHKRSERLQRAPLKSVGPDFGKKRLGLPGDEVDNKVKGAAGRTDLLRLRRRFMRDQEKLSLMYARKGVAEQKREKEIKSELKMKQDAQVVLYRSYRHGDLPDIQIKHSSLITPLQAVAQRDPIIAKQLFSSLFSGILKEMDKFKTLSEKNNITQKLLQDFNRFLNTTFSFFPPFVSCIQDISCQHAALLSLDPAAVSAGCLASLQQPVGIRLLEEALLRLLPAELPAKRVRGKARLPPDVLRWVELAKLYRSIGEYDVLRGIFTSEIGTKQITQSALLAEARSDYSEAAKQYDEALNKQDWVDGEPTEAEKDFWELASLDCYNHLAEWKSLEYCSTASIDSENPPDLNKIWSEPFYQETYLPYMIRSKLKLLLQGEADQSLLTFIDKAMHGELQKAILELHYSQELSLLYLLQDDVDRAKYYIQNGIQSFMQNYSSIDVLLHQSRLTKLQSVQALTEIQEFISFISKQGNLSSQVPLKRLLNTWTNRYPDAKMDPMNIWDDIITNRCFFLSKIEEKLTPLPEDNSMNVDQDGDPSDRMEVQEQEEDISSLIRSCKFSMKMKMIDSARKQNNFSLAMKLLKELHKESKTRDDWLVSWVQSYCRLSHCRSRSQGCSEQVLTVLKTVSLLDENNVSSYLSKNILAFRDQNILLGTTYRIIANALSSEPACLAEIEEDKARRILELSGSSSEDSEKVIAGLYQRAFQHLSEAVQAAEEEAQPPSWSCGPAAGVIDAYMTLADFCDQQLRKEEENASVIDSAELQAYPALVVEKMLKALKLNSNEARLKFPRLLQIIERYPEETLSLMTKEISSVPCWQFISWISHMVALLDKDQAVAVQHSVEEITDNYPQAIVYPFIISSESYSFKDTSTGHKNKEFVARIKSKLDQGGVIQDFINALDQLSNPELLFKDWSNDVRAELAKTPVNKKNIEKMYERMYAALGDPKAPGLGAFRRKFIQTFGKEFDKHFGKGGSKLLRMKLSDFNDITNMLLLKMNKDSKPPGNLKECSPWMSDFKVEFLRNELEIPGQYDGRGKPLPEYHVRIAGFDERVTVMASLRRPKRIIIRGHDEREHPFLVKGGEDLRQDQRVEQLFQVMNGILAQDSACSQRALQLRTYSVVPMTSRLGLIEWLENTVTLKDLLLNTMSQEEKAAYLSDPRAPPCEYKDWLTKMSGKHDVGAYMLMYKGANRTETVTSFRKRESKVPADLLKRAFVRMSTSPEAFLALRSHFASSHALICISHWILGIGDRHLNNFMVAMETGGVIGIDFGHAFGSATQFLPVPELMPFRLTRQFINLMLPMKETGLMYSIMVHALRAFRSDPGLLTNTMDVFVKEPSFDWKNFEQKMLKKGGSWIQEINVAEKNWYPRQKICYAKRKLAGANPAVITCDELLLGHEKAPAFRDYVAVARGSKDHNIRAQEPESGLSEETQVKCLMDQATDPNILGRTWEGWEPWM

[17] = biological target: ALK tyrosine kinase receptor (Homo sapiens) (UniProt Q9UM73); test: Inhibition of human ALK at 10 uM using poly[Glu:Tyr] (4:1) as substrate by [gamma-33P]-ATP assay relative to control
Homo sapiens [18] = species on record: Homo sapiens; test: Selectivity index, ratio of IC50 for human c-MET to IC50 for human p38alpha
Homo sapiens [19] = species on record: Homo sapiens; test: Selectivity index, ratio of IC50 for human BRAF V600E mutant to IC50 for human p38alpha
[20] = biological target: Serine/threonine-protein kinase B-raf (Homo sapiens, UniProt P15056, V600E); test: Inhibition of human BRAF V600E mutant using MEK1 as substrate by […]-ATP assay
[21] = biological target: Hepatocyte growth factor receptor (Homo sapiens, UniProt P08581); test: Inhibition of human c-MET using KKKSPGEYVNIEFG as substrate by [gamma-33P]-ATP assay
[22] = Stability in human plasma assessed as remaining compound at 10 uM incubated for 30 mins by LC-MS analysis; format: ADME, cell-free; conditions: read-out: Stability
Homo sapiens [23] = species on record: Homo sapiens; test: Selectivity index, ratio of IC50 for human ERG to IC50 for human p38alpha
[24] = Stability in rat plasma assessed as remaining compound at 10 uM incubated for 120 mins by LC-MS analysis; format: ADME, cell-free; conditions: read-out: Stability
[25] = Half life in Sprague-Dawley rat at 10 mg/kg, iv measured for each 30 mins by LC-MS/MS analysis; format: ADME, organism-based; conditions: in vivo
[26] = Tmax in Sprague-Dawley rat at 10 mg/kg, po measured for each 30 mins by LC-MS/MS analysis; format: ADME, organism-based; conditions: in vivo
[27] = Cmax in Sprague-Dawley rat at 10 mg/kg, po measured for each 30 mins by LC-MS/MS analysis; format: ADME, organism-based; set-up: dose 10 mg/kg, route oral; conditions: in vivo
[28] = AUClast in Sprague-Dawley rat at 10 mg/kg, po measured for each 30 mins by LC-MS/MS analysis; format: ADME, organism-based; set-up: dose 10 mg/kg, route oral, time 0 - last; conditions: in vivo

## COc1ccc(-c2nn(-c3cccc(NC(=O)c4cccc(C(F)(F)F)c4)c3)cc2-c2ccncc2)cc1Cl
[1]
  IC50: 13.1 µM
THP-1
  IC50: 0.058 µM
[2]
  EC50: 0.52 µM
Homo sapiens [3]
  Ratio IC50: 15.3
[4]
  inhibition: -6.34%
[5]
  inhibition: -1.3%
[6]
  inhibition: 27%
[7]
  inhibition: 5.62%
[8]
  inhibition: 28.2%
[9]
  inhibition: 1.72%
[10]
  inhibition: -5.65%
[11]
  inhibition: -7.68%
[12]
  inhibition: 13.2%
[13]
  inhibition: 12.2%
[14]
  inhibition: 5.66%
[15]
  inhibition: 90.5%
[16]
  inhibition: -1.83%
[17]
  inhibition: 3.5%
Homo sapiens [18]
  Ratio IC50: 455
Homo sapiens [19]
  Ratio IC50: 7.18
[20]
  IC50: 0.158 µM
[21]
  IC50: > 10 µM
[22]
  remaining at 0.5 h, 10 µM: 100%
Homo sapiens [23]
  Ratio IC50: 23.8
[24]
  remaining at 2 h, 10 µM: 100%
[25]
  half-life: 6.4 h
[26]
  Tmax: 1.2 h
[27]
  Cmax: 33.2 ng/mL
[28]
  AUC(0-t) at 0.5 h: 164 ng·h/mL
